Laboratory results published in US20100267561A1, “HERBICIDAL PYRIDAZINONE DERIVATIVES” (priority 2007, published 2010).

What was measured:
Format in all cases: in vivo
[1] = system: downy bromegrass (Bromus tectorum); test: Test C pre-/postemergence plant response; conditions: Preemergence
Summary of the method: (§1)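 Formulated in a surfactant-containing non-phytotoxic solvent, compounds were tested under controlled growth conditions as preemergence and postemergence treatments. Ratings from 0 (no effect) to 100 (complete control) were assigned visually relative to controls 15 to 25 days later.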

[2] = system: canarygrass (Phalaris minor); test: Test C pre-/postemergence plant response; conditions: Preemergence
Summary of the method: as §1

[3] = system: pigweed (Amaranthus retroflexus); test: Test C pre-/postemergence plant response; conditions: Preemergence
Summary of the method: as §1

[4] = system: Italian ryegrass (Lolium multiflorum); test: Test C pre-/postemergence plant response; conditions: Preemergence
Summary of the method: as §1

[5] = system: spring wheat (Triticum aestivum); test: Test C pre-/postemergence plant response; conditions: Preemergence
Summary of the method: as §1

[6] = system: annual bluegrass (Poa annua); test: Test C pre-/postemergence plant response; conditions: Preemergence
Summary of the method: as §1

[7] = system: wild mustard (Sinapis arvensis); test: Test C pre-/postemergence plant response; conditions: Preemergence
Summary of the method: as §1

[8] = system: green foxtail (Setaria viridis); test: Test C pre-/postemergence plant response; conditions: Preemergence
Summary of the method: as §1

[9] = system: blackgrass (Alopecurus myosuroides); test: Test C pre-/postemergence plant response; conditions: Preemergence
Summary of the method: as §1

[10] = system: windgrass (Apera spica-venti); test: Test C pre-/postemergence plant response; conditions: Preemergence
Summary of the method: as §1

wild oat (Avena fatua) = test: Test C pre-/postemergence plant response; conditions: Preemergence
Summary of the method: as §1

[11] = system: winter barley (Hordeum vulgare); test: Test C pre-/postemergence plant response; conditions: Preemergence
Summary of the method: as §1

[12] = system: winter wheat (Triticum aestivum); test: Test C pre-/postemergence plant response; conditions: Preemergence
Summary of the method: as §1

[13] = system: spring barley (Hordeum vulgare); test: Test C pre-/postemergence plant response; conditions: Preemergence
Summary of the method: as §1

corn (Zea mays) = test: Test A pre-/postemergence plant response
Summary of the method: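 Soil: loam blended with sand. Formulation: non-phytotoxic solvent mixture plus surfactant, applied as preemergence directed soil spray and as postemergence spray. Scoring: visual, 0 no effect to 100 complete control, roughly 10 days post-treatment in greenhouse.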

[14] = 8 g ai/ha, scale 0 to 100 (0 no effect, 100 complete control)
[15] = 16 g ai/ha, scale 0 to 100 (0 no effect, 100 complete control)
[16] = 31 g ai/ha, scale 0 to 100 (0 no effect, 100 complete control)
[17] = 62 g ai/ha, scale 0 to 100, 0 no effect, 100 complete control
[18] = Postemergence, 31 g ai/ha, 0 to 100 scale, 0 no effect, 100 complete control
[19] = Postemergence, 125 g ai/ha, 0 to 100 scale, 0 no effect, 100 complete control
[20] = Preemergence, 31 g ai/ha, 0 to 100 scale, 0 is no effect, 100 is complete control
[21] = Preemergence, 125 g ai/ha, 0 to 100 scale (0 no effect, 100 complete control)

Cc1cc(-c2ccc(Cl)cc2)nn1-c1c(OC(=O)Oc2ccccc2)cnn(C)c1=O [Compound 54]
Plant response rating, Bromegrass, Downy [1, 14]: 0 | Plant response rating, Bromegrass, Downy [1, 15]: 0 | Plant response rating, Bromegrass, Downy [1, 16]: 15 | Plant response rating, Bromegrass, Downy [1, 17]: 80 | Plant response rating, Canarygrass [2, 14]: 0 | Plant response rating, Canarygrass [2, 15]: 70 | Plant response rating, Canarygrass [2, 16]: 80 | Plant response rating, Canarygrass [2, 17]: 95 | Plant response rating, Pigweed [3, 14]: 0 | Plant response rating, Pigweed [3, 15]: 0 | Plant response rating, Pigweed [3, 16]: 0 | Plant response rating, Pigweed [3, 17]: 0 | Plant response rating, Ryegrass, Italian [4, 14]: 0 | Plant response rating, Ryegrass, Italian [4, 15]: 20 | Plant response rating, Ryegrass, Italian [4, 16]: 100 | Plant response rating, Ryegrass, Italian [4, 17]: 100 | Plant response rating, Wheat, Spring [5, 14]: 0 | Plant response rating, Wheat, Spring [5, 15]: 25 | Plant response rating, Wheat, Spring [5, 16]: 65 | Plant response rating, Wheat, Spring [5, 17]: 98 | Plant response rating, Bluegrass [6, 14]: 0 | Plant response rating, Bluegrass [6, 15]: 0 | Plant response rating, Bluegrass [6, 16]: 0 | Plant response rating, Bluegrass [6, 17]: 25 | Plant response rating, Mustard, Wild [7, 15]: 0 | Plant response rating, Mustard, Wild [7, 16]: 0 | Plant response rating, Mustard, Wild [7, 17]: 0 | Plant response rating, Foxtail, Green [8, 14]: 40 | Plant response rating, Foxtail, Green [8, 15]: 98 | Plant response rating, Foxtail, Green [8, 16]: 100 | Plant response rating, Foxtail, Green [8, 17]: 100 | Plant response rating, Blackgrass [9, 14]: 35 | Plant response rating, Blackgrass [9, 15]: 70 | Plant response rating, Blackgrass [9, 16]: 100 | Plant response rating, Blackgrass [9, 17]: 100 | Plant response rating, Windgrass [10, 14]: 0 | Plant response rating, Windgrass [10, 15]: 0 | Plant response rating, Windgrass [10, 16]: 60 | Plant response rating, Windgrass [10, 17]: 75 | Plant response rating, Oat, Wild (wild oat (Avena fatua); [14]): 0 | Plant response rating, Oat, Wild (wild oat (Avena fatua); [15]): 0 | Plant response rating, Oat, Wild (wild oat (Avena fatua); [16]): 40 | Plant response rating, Oat, Wild (wild oat (Avena fatua); [17]): 70 | Plant response rating, Barley, Winter [11, 14]: 0 | Plant response rating, Barley, Winter [11, 15]: 10 | Plant response rating, Barley, Winter [11, 16]: 15 | Plant response rating, Barley, Winter [11, 17]: 75 | Plant response rating, Wheat, Winter [12, 14]: 0 | Plant response rating, Wheat, Winter [12, 15]: 0 | Plant response rating, Wheat, Winter [12, 16]: 35 | Plant response rating, Wheat, Winter [12, 17]: 50 | Plant response rating, Barley, Spring [13, 14]: 0 | Plant response rating, Barley, Spring [13, 15]: 0 | Plant response rating, Barley, Spring [13, 16]: 25 | Plant response rating, Barley, Spring [13, 17]: 70 | Plant response rating, Corn (corn (Zea mays); [18]): 40 | Plant response rating, Corn (corn (Zea mays); [19]): 90 | Plant response rating, Corn (corn (Zea mays); [20]): 0 | Plant response rating, Corn (corn (Zea mays); [21]): 60

Cc1cc(-c2ccc(Cl)cc2)nn1-c1c(OS(=O)(=O)c2ccc(Cl)s2)cnn(C)c1=O [Compound 55]
Plant response rating, Bromegrass, Downy [1, 14]: 0 | Plant response rating, Bromegrass, Downy [1, 15]: 0 | Plant response rating, Bromegrass, Downy [1, 16]: 0 | Plant response rating, Bromegrass, Downy [1, 17]: 40 | Plant response rating, Canarygrass [2, 14]: 0 | Plant response rating, Canarygrass [2, 15]: 0 | Plant response rating, Canarygrass [2, 16]: 20 | Plant response rating, Canarygrass [2, 17]: 90 | Plant response rating, Pigweed [3, 14]: 0 | Plant response rating, Pigweed [3, 15]: 0 | Plant response rating, Pigweed [3, 16]: 0 | Plant response rating, Ryegrass, Italian [4, 14]: 0 | Plant response rating, Ryegrass, Italian [4, 15]: 0 | Plant response rating, Ryegrass, Italian [4, 17]: 90 | Plant response rating, Wheat, Spring [5, 14]: 0 | Plant response rating, Wheat, Spring [5, 15]: 0 | Plant response rating, Wheat, Spring [5, 16]: 50 | Plant response rating, Wheat, Spring [5, 17]: 60 | Plant response rating, Bluegrass [6, 14]: 0 | Plant response rating, Bluegrass [6, 15]: 0 | Plant response rating, Bluegrass [6, 16]: 0 | Plant response rating, Bluegrass [6, 17]: 15 | Plant response rating, Mustard, Wild [7, 14]: 0 | Plant response rating, Mustard, Wild [7, 15]: 0 | Plant response rating, Mustard, Wild [7, 16]: 0 | Plant response rating, Mustard, Wild [7, 17]: 0 | Plant response rating, Foxtail, Green [8, 14]: 20 | Plant response rating, Foxtail, Green [8, 15]: 40 | Plant response rating, Foxtail, Green [8, 16]: 100 | Plant response rating, Foxtail, Green [8, 17]: 100 | Plant response rating, Blackgrass [9, 15]: 40 | Plant response rating, Blackgrass [9, 16]: 80 | Plant response rating, Blackgrass [9, 17]: 95 | Plant response rating, Windgrass [10, 14]: 0 | Plant response rating, Windgrass [10, 15]: 0 | Plant response rating, Windgrass [10, 16]: 0 | Plant response rating, Windgrass [10, 17]: 60 | Plant response rating, Oat, Wild (wild oat (Avena fatua); [14]): 0 | Plant response rating, Oat, Wild (wild oat (Avena fatua); [15]): 0 | Plant response rating, Oat, Wild (wild oat (Avena fatua); [16]): 0 | Plant response rating, Oat, Wild (wild oat (Avena fatua); [17]): 65 | Plant response rating, Barley, Winter [11, 14]: 0 | Plant response rating, Barley, Winter [11, 15]: 0 | Plant response rating, Barley, Winter [11, 16]: 0 | Plant response rating, Barley, Winter [11, 17]: 60 | Plant response rating, Wheat, Winter [12, 14]: 0 | Plant response rating, Wheat, Winter [12, 15]: 0 | Plant response rating, Wheat, Winter [12, 16]: 0 | Plant response rating, Wheat, Winter [12, 17]: 60 | Plant response rating, Barley, Spring [13, 14]: 0 | Plant response rating, Barley, Spring [13, 15]: 0 | Plant response rating, Barley, Spring [13, 16]: 0 | Plant response rating, Barley, Spring [13, 17]: 70 | Plant response rating, Corn (corn (Zea mays); [18]): 0 | Plant response rating, Corn (corn (Zea mays); [19]): 40 | Plant response rating, Corn (corn (Zea mays); [20]): 0 | Plant response rating, Corn (corn (Zea mays); [21]): 40
